Laboratory results from US5273991A, “Imidazole-containing compositions and methods of use thereof analogs of distamycin” (Research Corporation Technologies, Inc., priority 1992, dated 1993).

Assays:
Experiment in all cases: NCI cytotoxicity screen (SRB)
Type in all cases: cell-based, human
786-0 = system: 786-0
Protocol: (§1) Compounds 6, 7, 9 and 10 were tested for cytotoxic properties by the National Cancer Institute, Bethesda, Md. The anticancer drug screen utilized a panel of 60 human tumor cell lines organized into subpanels representing leukemia, melanoma, and cancers of the lung, colon, kidney, ovary and central nervous system and is described by Monks et al. (1991) Journal of the National Cancer Institute 83, 757, which is incorporated herein by reference.
(§2) Cell lines were inoculated onto microtiter plates and preincubated for 24-28 hours. 100 μL aliquots of each compound were added to the appropriate microtiter plate wells in each of five 10-fold dilutions starting from a maximum concentration of 10^-4 M in water or DMSO. Cultures were then incubated for an additional 48 hours. Cells were then fixed in situ, followed by staining with sulforhodamine B (SRB), which binds to basic amino acids of cellular macromolecules. The solubilized stain was measured spectrophotometrically to determine relative cell growth or viability in treated and untreated cells. The monoimidazole analogs of Compounds 6, 7, 9 and 10 and the formamido analog corresponding to Compounds 7 and 10 are devoid of activity against the panel of cancer cell lines in Table III.

A498 = system: A498
Protocol: as §1, §2

ACHN = system: ACHN
Protocol: as §1, §2

CAKI-1 = system: CAKI-1
Protocol: as §1, §2

CCRF-CEM = system: CCRF-CEM
Protocol: as §1, §2

HOP-92 = details: subsequent test date
Protocol: as §1, §2

LOX 1MV1 = system: LOX 1MV1
Protocol: as §1, §2

LXFL529 = system: LXFL529
Protocol: as §1, §2

M14 = system: M14
Protocol: as §1, §2

M19-MEL = system: M19-MEL
Protocol: as §1, §2

OVCAR-3 = system: OVCAR-3
Protocol: as §1, §2

OVCAR-4 = system: OVCAR-4
Protocol: as §1, §2

OVCAR-5 = system: OVCAR-5
Protocol: as §1, §2

RPMI-8226 = system: RPMI-8226
Protocol: as §1, §2

RXF-393 = system: RXF-393
Protocol: as §1, §2

RXR-631 = system: RXR-631
Protocol: as §1, §2

SK-MEL-28 = system: SK-MEL-28
Protocol: as §1, §2

SK-MEL-2 = system: SK-MEL-2
Protocol: as §1, §2

SK-MEL-5 = system: SK-MEL-5
Protocol: as §1, §2

SN12C = system: SN12C
Protocol: as §1, §2

SNB-19 = system: SNB-19
Protocol: as §1, §2

SNB-75 = system: SNB-75
Protocol: as §1, §2

SNB-78 = system: SNB-78
Protocol: as §1, §2

SR = system: SR
Protocol: as §1, §2

TK-10 = system: TK-10
Protocol: as §1, §2

VO-31 = system: VO-31
Protocol: as §1, §2

LOX IMVI = details: 48 h; Melanoma LOX IMVI
Protocol: as §1, §2

[1] = SK-MEL-28, subsequent test date

In the case of CN(C)CCNC(=O)c1nc(NC(=O)c2nc(NC(=O)c3ccc(N(CCCl)CCCl)cc3)cn2C)cn1C [Compound 6, N-(N',N'-dimethylaminoethyl)-1-methyl-4-{4-[4,4-bis(2-chloroethyl)aminobenzamido]-1-methylimidazole-2-carboxamido}imidazole-2-carboxamide], the IC50 (786-0; 786-0, subsequent test date) is reported as 6.98 µM, the IC50 (786-0; 48 h, Renal Cancer 786-0) is reported as 25.4 µM and the IC50 (A498; 48 h, Renal Cancer A498) is reported as 40.6 µM. The IC50 (A498; A498, subsequent test date) was 66 µM, the IC50 (ACHN; 48 h, Renal Cancer ACHN) was 54.2 µM and the IC50 (ACHN; ACHN, subsequent test date) was 46.9 µM. The IC50 (CAKI-1; 48 h, Renal Cancer CAKI-1) was 51.9 µM, the IC50 (CAKI-1; CAKI-1, subsequent test date) was 59.7 µM and the IC50 (CCRF-CEM; 48 h, Leukemia CCRF-CEM) was 10.9 µM. It also gave an IC50 (CCRF-CEM; CCRF-CEM, subsequent test date) of 40.3 µM, an IC50 (HOP-92) of 42.7 µM and an IC50 (LOX 1MV1; LOX 1MV1, subsequent test date) of 7.47 µM. For the same compound, the IC50 (LXFL529; 48 h, Non-Small Cell Lung Cancer LXFL529) was 13.2 µM, the IC50 (LXFL529; LXFL529, subsequent test date) was 34.8 µM and the IC50 (M14; 48 h, Melanoma M14) was 5.92 µM. It also gave an IC50 (M14; M14, subsequent test date) of 5.81 µM, an IC50 (M19-MEL; 48 h, Melanoma M19-MEL) of 5.64 µM and an IC50 (M19-MEL; M19-MEL, subsequent test date) of 5.65 µM. It also gave an IC50 (OVCAR-3; 48 h, Ovarian Cancer OVCAR-3) of 56 µM, an IC50 (OVCAR-3; OVCAR-3, subsequent test date) of 56.7 µM and an IC50 (OVCAR-4; 48 h, Ovarian Cancer OVCAR-4) of 34.2 µM. It also gave an IC50 (OVCAR-4; OVCAR-4, subsequent test date) of 14.3 µM, an IC50 (OVCAR-5; 48 h, Ovarian Cancer OVCAR-5) of 45.7 µM and an IC50 (OVCAR-5; OVCAR-5, subsequent test date) of 51.3 µM. For the same compound, the IC50 (RPMI-8226; 48 h, Leukemia RPMI-8226) was 30.5 µM, the IC50 (RPMI-8226; RPMI-8226, subsequent test date) was 39.4 µM and the IC50 (RXF-393; 48 h, Renal Cancer RXF-393) was 50.3 µM. It also gave an IC50 (RXF-393; RXF-393, subsequent test date) of 44.3 µM, an IC50 (RXR-631; 48 h, Renal Cancer RXR-631) of 6.61 µM and an IC50 (RXR-631; RXR-631, subsequent test date) of 9.95 µM. It also gave an IC50 (SK-MEL-28; 48 h, Melanoma SK-MEL-28) of 5.69 µM, an IC50 (SK-MEL-28; [1]) of 5.78 µM and an IC50 (SK-MEL-2; 48 h, Melanoma SK-MEL-2) of 7.17 µM. For the same compound, the IC50 (SK-MEL-2; SK-MEL-2, subsequent test date) was 5.85 µM, the IC50 (SK-MEL-5; SK-MEL-5, subsequent test date) was 52 µM and the IC50 (SN12C; 48 h, Renal Cancer SN12C) was 15.6 µM. It also gave an IC50 (SN12C; SN12C, subsequent test date) of 39.9 µM, an IC50 (SNB-19; 48 h, CNS Cancer SNB-19) of 43.7 µM and an IC50 (SNB-19; SNB-19, subsequent test date) of 32.4 µM. The IC50 (SNB-75; 48 h, CNS Cancer SNB-75) was 41 µM, the IC50 (SNB-75; SNB-75, subsequent test date) was 41.7 µM and the IC50 (SNB-78; 48 h, CNS Cancer SNB-78) was 67.2 µM. For the same compound, the IC50 (SNB-78; SNB-78, subsequent test date) was 78.9 µM, the IC50 (SR; 48 h, Leukemia SR) was 10.4 µM and the IC50 (SR; SR, subsequent test date) was greater than 100 µM. For the same compound, the IC50 (TK-10; 48 h, Renal Cancer TK-10) was 59.9 µM, the IC50 (TK-10; TK-10, subsequent test date) was 56.2 µM and the IC50 (VO-31; 48 h, Renal Cancer VO-31) was 59.2 µM. The IC50 (VO-31; VO-31, subsequent test date) was 57.9 µM.

CN(C)CCNC(=O)c1nc(NC(=O)c2nc(NC(=O)c3nc(NC(=O)c4ccc(N(CCCl)CCCl)cc4)cn3C)cn2C)cn1C [Compound 7, N-(N',N'-dimethylaminoethyl)-1-methyl-4-{1-methyl-4-[4-(4,4-bis-(2-chloroethyl)aminobenzamido)-1-methylimidazole-2-carboxamido]imidazole-2-carboxamido}imidazole-2-carboxamide] showed an IC50 (786-0; 786-0, subsequent test date) of 0.51 µM, an IC50 (A498; 48 h, Renal Cancer A498) of 7.76 µM and an IC50 (ACHN; 48 h, Renal Cancer ACHN) of 7.05 µM. For the same compound, the IC50 (ACHN; ACHN, subsequent test date) was 4.92 µM, the IC50 (CAKI-1; 48 h, Renal Cancer CAKI-1) was greater than 100 µM and the IC50 (CCRF-CEM; 48 h, Leukemia CCRF-CEM) was 1.52 µM. The IC50 (HOP-92) was 3.33 µM, the IC50 (LOX 1MV1; 48 h, Melanoma LOX 1MV1) was 0.89 µM and the IC50 (LOX 1MV1; LOX 1MV1, subsequent test date) was 4.51 µM. For the same compound, the IC50 (LXFL529; LXFL529, subsequent test date) was 0.54 µM, the IC50 (M14; M14, subsequent test date) was 0.59 µM and the IC50 (M19-MEL; M19-MEL, subsequent test date) was 0.78 µM. It also gave an IC50 (OVCAR-3; 48 h, Ovarian Cancer OVCAR-3) of 0.72 µM, an IC50 (OVCAR-3; OVCAR-3, subsequent test date) of 0.62 µM and an IC50 (OVCAR-4; 48 h, Ovarian Cancer OVCAR-4) of 0.61 µM. It also gave an IC50 (OVCAR-4; OVCAR-4, subsequent test date) of 0.5 µM, an IC50 (OVCAR-5; 48 h, Ovarian Cancer OVCAR-5) of 6.13 µM and an IC50 (OVCAR-5; OVCAR-5, subsequent test date) of 5.24 µM. For the same compound, the IC50 (RXF-393; 48 h, Renal Cancer RXF-393) was 0.66 µM, the IC50 (RXR-631; 48 h, Renal Cancer RXR-631) was 5.97 µM and the IC50 (SK-MEL-28; 48 h, Melanoma SK-MEL-28) was 0.91 µM. For the same compound, the IC50 (SK-MEL-28; [1]) was 0.64 µM, the IC50 (SK-MEL-2; 48 h, Melanoma SK-MEL-2) was 0.65 µM and the IC50 (SK-MEL-5; 48 h, Melanoma SK-MEL-5) was 0.63 µM. For the same compound, the IC50 (SN12C; SN12C, subsequent test date) was 0.61 µM, the IC50 (SNB-19; 48 h, CNS Cancer SNB-19) was greater than 100 µM and the IC50 (SNB-75; 48 h, CNS Cancer SNB-75) was 0.61 µM. It also gave an IC50 (SR; 48 h, Leukemia SR) of 0.91 µM, an IC50 (TK-10; 48 h, Renal Cancer TK-10) of 4.2 µM and an IC50 (TK-10; TK-10, subsequent test date) of 3.51 µM. The IC50 (VO-31; 48 h, Renal Cancer VO-31) was greater than 100 µM and the IC50 (VO-31; VO-31, subsequent test date) was 96.6 µM.

CN(C)CCNC(=O)c1nc(NC(=O)c2nc(NC(=O)CCCc3ccc(N(CCCl)CCCl)cc3)cn2C)cn1C [Compound 9, N-(N',N'-dimethylaminoethyl)-1-methyl-4-{4-[4,4-bis(2-chloroethyl)aminophenyl-1-butanamido]-1-methylimidazole-2-carboxamido}imidazole-2-carboxamide] was tested, and the IC50 (LOX IMVI) was 49.5 µM.

CN(C)CCNC(=O)c1nc(NC(=O)c2nc(NC(=O)c3nc(NC(=O)CCCc4ccc(N(CCCl)CCCl)cc4)cn3C)cn2C)cn1C [Compound 10, N-(N',N'-dimethylaminoethyl)-1-methyl-4-{1-methyl-4-[4-(4,4-bis(2-chloroethyl)aminophenyl-1-butanamido)-1-methylimidazole-2-carboxamido]imidazole-2-carboxamido}imidazole-2-carboxamide] showed an IC50 (LOX IMVI) of 6.44 µM, an IC50 (RPMI-8226; 48 h, Leukemia RPMI-8226) of 9.5 µM and an IC50 (SNB-78; 48 h, CNS Cancer SNB-78) of 9.75 µM.
